Data taken from US7888040B2, “Detection of methamphetamine group drugs” (priority 2004, dated 2011).

Columns and labels:
[1] = tested on: monoclonal anti-methamphetamine antibody; assay: Competitive inhibition ELISA (CELIA) on BSA-pseudoephedrine coated wells; type: binding, mouse; settings: for Detection by the competitive ELISA (in words): summary of Table 1
Description: The conjugate was evaluated using ELISA. 96-well microtitre plates (Costar) were coated with BSA-pseudoephedrine (5 :g/ml in 0.05 M sodium carbonate/bicarbonate buffer, pH 9.6, 100 :l/well) overnight at room temperature. […] Two fold dilutions of monoclonal anti-methamphetamine antibody (East coast Biological, USA) in wash buffer containing 10 mg/ml BSA (assay buffer) were added to the wells (100 :l/well) and the plate incubated at room temperature for 30 minutes. The wells were washed 3 times with wash buffer and horseradish peroxidase-labelled goat anti-mouse IgG antibody (product number A-4416, Sigma Co., Poole, England) was added to the wells (1/2000 dilution in assay buffer, 100 :l/well) and incubation continued for a further 30 minutes. […] After 30 minutes incubation, colour development was stopped by the addition of 1 M sulphuric acid (100 :l/well). Colour intensity was measured at 450 nm.
Competitive ELISA was then set up to evaluate the cross-reactivity of various drugs with methamphetamine. […] The designer ecstasy drugs MDMA and MBDB were well detected by this assay.

[2] = tested on: gold-labelled mouse anti-methamphetamine antibody; assay: Lateral flow immunochromatography test for methamphetamine/ecstasy in spiked oral fluid; settings: for Lateral flow test result (in words): Table 2, at the concentrations tested; for Lateral flow test result: cut off set at ≧15 ng/ml (+)-methamphetamine
[3] = compound at 15 ng/ml in spiked saliva, Cozart Rapiscan reader
[4] = compound at 10,000 ng/ml, read off (+)-methamphetamine or ecstasy standard curve
[5] = compound at 10,000 ng/ml in spiked saliva

## CCC(Cc1ccc2c(c1)OCO2)NC (racemic) [MBDB, (+/−)-N-methyl-1-(3,4-methylenedioxyphenyl)-2-butanamine]
[1]; compound at 25 ng/ml
  % Cross-reactivity: 75.04%
  Concentration determined by ELISA: 18.76 ng/mL
[1]; compound at 100 ng/ml
  % Cross-reactivity: 66.43%
  Concentration determined by ELISA: 66.43 ng/mL
[1]; compound at 500 ng/ml
  % Cross-reactivity: 87.78%
  Concentration determined by ELISA: 438.88 ng/mL
[1]
  Detection by the competitive ELISA (in words): well detected
[2]
  Lateral flow test result (in words): picked up
[2]; [3]
  Lateral flow test result: positive

## CC(N)Cc1ccccc1 (single isomer, unassigned; (+)) [(+)-amphetamine]
[1]; compound at 10,000 ng/ml
  % Cross-reactivity: 0.379%
[1]; compound at 10,000 ng/ml, listed as amphetamine
  % Cross-reactivity: < 0.4%
[1]; [4]
  Concentration determined by ELISA: 37.97 ng/mL
[2]; [5]
  Lateral flow test result: negative

## CN[C@H](C)[C@@H](O)c1ccccc1 [(+)-ephedrine]
[1]; compound at 10,000 ng/ml
  % Cross-reactivity: 0.08%
[1]; [4]
  Concentration determined by ELISA: 8.37 ng/mL
[2]; [5]
  Lateral flow test result: negative

## CN[C@@H](C)[C@H](O)c1ccccc1 [(−)-ephedrine]
[1]; compound at 10,000 ng/ml
  % Cross-reactivity: 0.05%
[1]; [4]
  Concentration determined by ELISA: 5.05 ng/mL
[2]; [5]
  Lateral flow test result: negative

## CN(C)CCC(c1ccc(Cl)cc1)c1ccccn1 (stereo not drawn) [Chlorpheniramine]
[2]; [5]
  Lateral flow test result: negative

## CCNC(C)Cc1cccc(C(F)(F)F)c1 (stereo not drawn) [Fenfluramine]
[2]; [5]
  Lateral flow test result: negative

## CNC1(c2ccccc2Cl)CCCCC1=O (stereo not drawn) [Ketamine]
[2]; [5]
  Lateral flow test result: negative

## CC(N)Cc1ccc2c(c1)OCO2 (stereo not drawn) [MDA, 3,4-methylenedioxyamphetamine]
[1]; compound at 10,000 ng/ml
  % Cross-reactivity: 0.219%
[1]; [4]
  Concentration determined by ELISA: 21.94 ng/mL
[2]; [5]
  Lateral flow test result: negative

## CNC(C)Cc1ccc2c(c1)OCO2 (stereo not drawn) [MDMA (Ecstasy), 3,4-methylenedioxymethamphetamine]
[1]; compound at 15 ng/ml
  % Cross-reactivity: 55.0%
  Concentration determined by ELISA: 8.26 ng/mL
[1]; compound at 50 ng/ml
  % Cross-reactivity: 48.1%
  Concentration determined by ELISA: 24.09 ng/mL
[1]; compound at 100 ng/ml
  % Cross-reactivity: 53.19%
  Concentration determined by ELISA: 53.19 ng/mL
[1]
  Detection by the competitive ELISA (in words): well detected
[2]
  Lateral flow test result (in words): picked up
[2]; compound at 30 ng/ml in spiked saliva
  Lateral flow test result: positive

## CN(C)CCC(c1ccccc1)c1ccccn1 (stereo not drawn) [Pheniramine]
[2]; [5]
  Lateral flow test result: negative

## NCCc1ccccc1 [beta-phenylethylamine]
[1]; compound at 10,000 ng/ml
  % Cross-reactivity: 0.25%
[1]; [4]
  Concentration determined by ELISA: 25.6 ng/mL
[2]; [5]
  Lateral flow test result: negative

## CC(C)(N)Cc1ccccc1 [phentermine]
[1]; compound at 50,000 ng/ml
  % Cross-reactivity: 0.009%
  Concentration determined by ELISA: 4.67 ng/mL

## CC(N)C(O)c1ccccc1 (stereo not drawn) [phenylpropanolamine]
[1]; compound at 10,000 ng/ml
  % Cross-reactivity: 0.06%
[1]; [4]
  Concentration determined by ELISA: 5.8 ng/mL
[2]; [5]
  Lateral flow test result: negative

## NCCc1ccc(O)cc1 [tyramine, 4-hydroxy-phenethylamine]
[1]; compound at 10,000 ng/ml
  % Cross-reactivity: 0.03%
[1]; [4]
  Concentration determined by ELISA: 3.72 ng/mL
[2]; [5]
  Lateral flow test result: negative

## (+)-methamphetamine [(+)- methylamphetamine]
[2]
  Lateral flow test result (in words): picked up
[2]; [3]
  Lateral flow test result: positive

## (+)-pseudoephedrine
[1]; compound at 10,000 ng/ml
  % Cross-reactivity: 0.063%
[1]; [4]
  Concentration determined by ELISA: 6.3 ng/mL
[2]; [5]
  Lateral flow test result: negative

## (−)-pseudoephedrine
[1]; compound at 10,000 ng/ml
  % Cross-reactivity: 0.048%
[1]; [4]
  Concentration determined by ELISA: 4.84 ng/mL
[2]; [5]
  Lateral flow test result: negative
